Measured values taken from patent US10159640B2, “Prebiotic oral care compositions containing amino acids” (COLGATE-PALMOLIVE COMPANY, priority 2013, dated 2018).

Legend:
[1] = test system: beneficial oral bacteria and pathogenic oral bacteria; assay: Metabolic activity, whole panel: prebiotic effect; assay type: cell-based; conditions: threshold value of 2
How it was run: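 Biolog phenotype microarrays with dipeptide-preloaded wells; each species suspended in IF-0 with Redox Dye Mix D (85% transmittance) plus succinate/ferric citrate, incubated anaerobically at 37° C. Tetrazolium reduction read at 492 nm at 24 and 48 h versus no-dipeptide controls; values are means of three biological replicates.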

[2] = test system: beneficial oral bacteria and pathogenic oral bacteria; assay: Extent of growth, whole panel: prebiotic effect; assay type: cell-based; conditions: threshold value of 1.25
Excerpt: Substrates that were able to increase the growth (or maximal growth density or extent of growth) of at least one of the above beneficial bacteria while not or only minimally increasing the growth (or maximal growth density) of the pathogenic bacteria are considered to be prebiotic compounds.
The extent of growth of the tested bacteria in response to selected compounds (Met-Pro, Phe-Glu) was investigated by setting up growth curves in a nutritionally rich medium (brain heart infusion broth (BHI), Oxoid), over 48 hours. Late exponential growth phase liquid cultures were prepared by transferring the respective bacterium from blood agar plates to BHI and overnight incubation at 37° C. in an anaerobic atmosphere for A. viscosus, V. parvula, F. nucleatum, P. gingivalis, P. intermedia, T. forsythia, A. naeslundii, and C. sputigena, and in a 5% CO2 environment for S. salivarius, S. sanguinis, S. mitis, A. actinomycetemcomitans, S. mutans, S. sobrinus and S. gordonii. Overnight cultures were transferred to BHI and adjusted to a concentration of 1×10^7 CFU/ml (colony forming units per ml) by measuring the optical density at 600 nm (OD600) (BioRad SmartSpec 3000). For each strain, 200 μl of the bacterial suspension was added to a 96-well plate containing 20 μl of the respective di-peptides. Final concentrations of the di-peptides were set to 5, 10, 20 and 25 μmol/ml. […] Plates were incubated as previously described.
For each combination of bacterium/dipeptide, and for each of their respective controls (i.e. the particular bacterium in the nutritionally rich medium with no dipeptide), the optical density was measured at 630 nm (OD630) at 0 h, 24 h and 48 h (Thermo Scientific Multiskan Ascent). Additionally, the OD630 for combinations of bacterium/dipeptide grown in a 5% CO2 environment were also measured every hour between 0 h and 9 h.
The experiment was carried out on three different days (thus providing 3 biological replicas) and on each day the experiment was carried out in quadruple (thus providing 4 technical replicas) for each combination of bacterium with dipeptide and for each control. For each day and for each combination, the average (mean) of the values obtained (as detailed above) for the four technical replicas was calculated to provide a single value for each combination on each day. The values shown in Tables 5 to 6, below, are the average (mean) of the three single values obtained for each combination of bacterium with dipeptide.
This value was selected in order to exclude low-stimulating metabolites and avoid false positive results.

Phe-Glu
exhibited prebiotic effects: prebiotic effects (metabolic activity) ([1]; 24 hrs) | prebiotic effects (metabolic activity) ([1]; 48 hrs) | prebiotic effects (extent of growth) ([2]; 5 μmol/ml) | prebiotic effects (extent of growth) ([2]; 10 μmol/ml)

Met-Pro
exhibited prebiotic effects: prebiotic effects (metabolic activity) ([1]; 24 hrs) | prebiotic effects (metabolic activity) ([1]; 48 hrs) | prebiotic effects (extent of growth) ([2]; 10 μmol/ml) | prebiotic effects (extent of growth) ([2]; 20 μmol/ml) | prebiotic effects (extent of growth) ([2]; 25 μmol/ml)
